According to patent US9763980B2, “Combined chemical modification of sphingosine-1-phosphate (S1P) and CXCR4 signalling pathways for hematopoietic stem cell (HSC) mobilization and engraftment” (Children's Medical Center Corporation, priority 2011, dated 2017):

Tests used:
[1] = system: rheumatoid arthritis; conditions: rat models for rheumatoid arthritis; cited from earlier work
[2] = system: atopic dermatitis; conditions: mouse model for atopic dermatitis; cited from earlier work
[3] = system: airway inflammation and induction of bronchial hyperresponsiveness; conditions: mouse model for airway inflammation and induction of bronchial hyperresponsiveness; cited from earlier work
[4] = system: autoimmune myocarditis; conditions: rat model for autoimmune myocarditis; cited from earlier work
[5] = system: graft coronary artery disease and graft-versus-host disease (GVHD); conditions: mouse models for graft coronary artery disease and graft-versus-host disease (GVHD); cited from earlier work
[6] = system: acute viral myocarditis; conditions: mouse model for acute viral myocarditis; cited from earlier work
[7] = system: inflammatory bowel disease including colitis; conditions: mouse models for inflammatory bowel disease including colitis; cited from earlier work
[8] = system: asthma; conditions: mouse model for asthma; cited from earlier work
[9] = system: autoimmune uveitis; conditions: rat model for autoimmune uveitis; cited from earlier work
[10] = system: systemic lupus erythematosus (SLE); conditions: mouse model for systemic lupus erythematosus (SLE); cited from earlier work
[11] = system: ischemia-reperfusion injury; conditions: mouse model for ischemia-reperfusion injury; cited from earlier work
[12] = system: HSC; conditions: Massberg et al.; cited from earlier work
[13] = clinical trials; due to agonism of the S1P3 receptor; cited from earlier work
[14] = system: multiple sclerosis; conditions: cited from earlier work
[15] = system: atherosclerosis; conditions: mouse models for atherosclerosis; cited from earlier work
[16] = system: progressive mesangioproliferative glomerulonephritis; conditions: rat model for progressive mesangioproliferative glomerulonephritis; cited from earlier work
[17] = system: experimental autoimmune encephalomyelitis (EAE); conditions: EAE in rats, a model for human multiple sclerosis; cited from earlier work
[18] = system: CHT hematopoiesis (HSPC markers cmyb and runx1 in the CHT); test: Zebrafish embryo chemical treatment and dose matrices, whole mount in situ hybridization of cmyb/runx1 in the CHT; type: in vivo
Experimental: Transgenic zebrafish embryos were intercrossed and selected using epifluorescence (e.g. Runx1+23:EGFP, cmyb:EGFP^4, cd41:EGFP^2, kdrl:DsRed2^31). Live imaging was performed using a spinning disk confocal microscope with an incubated chamber. Zebrafish embryos were mounted and imaged as previously described. Live mouse fetal liver explants were prepared as previously described for aorta-gonad-mesonephros tissue^10. Image processing was done primarily with Fluorender^32 and ImageJ, which included the MTrackJ plugin^33 for manual cell tracking. For chemical screening and dose matrices, stage-matched AB embryos were dechorionated and arrayed 8-10/well in 96-well mesh-bottomed plates (Millipore). Embryos were treated from 48-72 hpf by placement directly in 96-well receiver plates containing small molecules diluted in E3 media+1% DMSO. Embryos were checked for circulation before fixation. Whole mount in situ hybridization was performed as previously described^34, with the addition of 0.2% glutaraldehyde to 4% formaldehyde at the post-fixation step. […] Lineage tracing was performed by injecting cd41:EGFP positive embryos with caged fluorescein conjugated to dextran (MW 10000). Embryos were uncaged in the DA at 28 hpf with a UV laser. Embryos were raised to 46 hpf in E3 media or E3+S1PR1 antagonist W146 (10 μM), then fixed for antibody staining to detect double positive cd41:EGFP and uncaged FITC HSPCs. Receptor fusion cDNAs (25 pg) were injected into one-cell embryos with Tol2 RNA (15 pg). Flow cytometry was performed using a LSR II and cells were sorted using a FACSAria (BD Biosciences). Flow cytometry data was analyzed using FACSDiva and FlowJo software.
Having followed newly born aortic HSPCs to the intermediate tissue, the inventors assessed the signaling pathways involved in embryonic migration. The inventors designed a chemical genetic screen to introduce small molecules to the zebrafish embryo from the peak window of HSPC migration to the CHT (48-72 hpf).

[19] = system: brain inflammatory reaction following traumatic brain injury (TBI); conditions: rat model for brain inflammatory reaction following traumatic brain injury (TBI); cited from earlier work
[20] = system: peripheral lymphocyte; conditions: in vivo; cited from earlier work
[21] = Phase II clinical trials, relapsing-remitting multiple sclerosis

## CCCCCCCCc1ccc(CCC(N)(CO)CO)cc1 [FTY720, 2-amino-2-[2-(4-octylphenyl)ethyl]propane-1,3-diol]
[1]
  therapeutic efficacy: therapeutic efficacy
[2]
  therapeutic efficacy: therapeutic efficacy
[3]
  therapeutic efficacy: therapeutic efficacy
[4]
  therapeutic efficacy: therapeutic efficacy
[5]
  therapeutic efficacy: therapeutic efficacy
[6]
  therapeutic efficacy: therapeutic efficacy
[7]
  therapeutic efficacy: therapeutic efficacy
[8]
  therapeutic efficacy: therapeutic efficacy
[9]
  therapeutic efficacy: therapeutic efficacy
[10]
  therapeutic efficacy: therapeutic efficacy
[11]
  therapeutic efficacy: therapeutic efficacy
[12]
  HSC egress from tissues: blocked
[13]
  adverse event: transient asymptomatic bradycardia
[14]; [21]
  clinical disease activity: reduce
  number of lesions detected by magnetic resonance imaging (MRI): reduce
[14]; multiple sclerosis, clinical trials
  therapeutic efficacy: therapeutic efficacy
[15]
  therapeutic efficacy: therapeutic efficacy
[16]
  therapeutic efficacy: therapeutic efficacy
[17]
  therapeutic efficacy: therapeutic efficacy
[18]; 15 μM AMD3100 and 5 μM FTY720
  CHT score (greatest engraftment in dose matrix): +2
[18]; 3:1 ratio of FTY720:AMD3100
  HSC engraftment: promote and enhance HSC engraftment
[18]; 5:1 ratio of FTY720:AMD3100
  migration of HSC from the bone marrow: promote migration of HSC
[18]; FTY720 5 μM alone, treatment from 48 hpf, 72 hpf embryos
  cmyb/runx1 expression in the CHT: little effect
[18]; FTY720 (5μM) combined with AMD3100 (15μM)
  CHT hematopoiesis: increase
[18]; FTY720 with increased AMD3100 dose
  CHT hematopoiesis: greatly reduced
[18]; combination of FTY720 and AMD3100 at specific combined doses (interaction matrix)
  CHT hematopoiesis: increased
[18]; combination with AMD3100
  Experimental data: concentration of S1PR1 modulating agent in the combination effective at increasing HSC engraftment: 5 µM
  Experimental data: concentration of S1PR1 modulating agent in the combination effective at increasing HSC mobilization: 5 μM FTY720
[18]; combination with AMD3100 in specific ratios
  mobilization of HSC from the bone marrow in vivo: improves mobilization
[18]; dose matrices, agent combined with AMD3100
  CHT hematopoiesis: synergistic increases
[18]; each agent alone at the doses of the effective FTY720/AMD3100 combination
  CHT hematopoiesis: no effect
[19]
  therapeutic efficacy: therapeutic efficacy
[20]
  lymphopenia (peripheral lymphocyte lowering): rapidly and reversibly induce lymphopenia
